Reference: ChEMBL document CHEMBL1671658, “VanA-type vancomycin-resistant Staphylococcus aureus” (2009)
≈ marks a conversion by molar mass, not a printed value.

How the values were obtained:
Staphylococcus aureus [1] = assay: Antibacterial activity against high-level-resistant vancomycin-resistant Staphylococcus aureus harboring Tn1546 element
Staphylococcus aureus [2] = assay: Antibacterial activity against VanA-type vancomycin-resistant Staphylococcus aureus isolate 1 harboring vanA operon
Staphylococcus aureus [3] = assay: Antibacterial activity against VanA-type vancomycin-resistant Staphylococcus aureus isolate 3 harboring vanA operon
Staphylococcus aureus [4] = assay: Antibacterial activity against VanA-type vancomycin-resistant Staphylococcus aureus isolate 2 harboring vanA operon

In the case of `CN[C@H](CC(C)C)C(=O)N[C@H]1C(=O)N[C@@H](CC(N)=O)C(=O)N[C@H]2C(=O)N[C@H]3C(=O)N[C@H](C(=O)N[C@H](C(=O)O)c4cc(O)cc(O)c4-c4cc3ccc4O)[C@H](O)c3ccc(c(Cl)c3)Oc3cc2cc(c3O[C@@H]2O[C@H](CO)[C@@H](O)[C@H](O)[C@H]2O[C@H]2C[C@](C)(N)[C@H](O)[C@H](C)O2)Oc2ccc(cc2Cl)[C@H]1O` [VANCOMYCIN], the MIC (Staphylococcus aureus [1]) is reported as > 256 µg/mL, the MIC (Staphylococcus aureus [2]) is reported as > 256 µg/mL and the MIC (Staphylococcus aureus [3]) is reported as 64 µg/mL (≈ 44.2 µM). It also gave an MIC (Staphylococcus aureus [4]) of 32 µg/mL (≈ 22.1 µM).
